Test results reported in patent US8278319B2, “Substituted spiroamine compounds” (Gruenenthal GmbH, priority 2008, dated 2012).

Assays:
rat B1R = target: T1, rat B1R (Rattus norvegicus, UniProt P97583); experiment: Functional investigation on the bradykinin receptor 1 (B1R), FLIPR Ca2+ assay, rB1R cells; type: cell-based; settings: % inhibition rat B1R at 10 μM; CHO K1 cells transfected with rat B1R; agonist Des-Arg9 bradykinin at EC80; read-out: % Inh. (rat B1R) 10 μM
T1 construct: expressed in transfected cells; host or cells: CHO K1 cells
T1 sequence (P97583 1-337): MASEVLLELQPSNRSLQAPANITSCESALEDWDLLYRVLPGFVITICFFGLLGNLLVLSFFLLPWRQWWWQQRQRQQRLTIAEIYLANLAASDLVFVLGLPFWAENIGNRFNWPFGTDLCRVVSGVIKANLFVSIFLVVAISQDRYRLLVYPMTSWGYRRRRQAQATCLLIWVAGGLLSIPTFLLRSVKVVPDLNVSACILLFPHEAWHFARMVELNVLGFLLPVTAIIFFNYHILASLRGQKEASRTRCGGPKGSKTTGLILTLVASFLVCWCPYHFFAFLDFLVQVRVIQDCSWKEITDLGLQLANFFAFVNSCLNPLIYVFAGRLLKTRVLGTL
Experimental: (§1) The agonistic or antagonistic action of substances can be quantified on the bradykinin receptor 1 (B1R) of the human and rat species with ectopically expressing cell lines (CHO K1 cells) and with the aid of a Ca^2+-sensitive dye (Fluo-4) using a fluorescent imaging plate reader (FLIPR). The indication in % activation is based on the Ca^2+ signal after addition of Lys-Des-Arg^9 bradykinin (0.5 nM) or Des-Arg^9 bradykinin (100 nM). Antagonists lead to a suppression of the Ca^2+ influx following administration of the agonist. The % inhibition in comparison with the maximum achievable inhibition is indicated.
(§2) The agonistic or antagonistic action of substances can be determined on the bradykinin 1 receptor (B1R) of the human and rat species with the following assay. According to this assay, the Ca^2+ inflow through the channel is quantified with the aid of a Ca^2+-sensitive dye (Fluo-4 type, Molecular Probes Europe BV, Leiden, The Netherlands) in a fluorescent imaging plate reader (FLIPR, Molecular Devices, Sunnyvale, USA).
(§3) Chinese hamster ovary cells (CHO K1 cells) which are stably transfected with the human B1R gene (hB1R cells) or the B1R gene of the rat (rB1R cells) are used. For functional investigations, these cells are plated-out onto black 96-well plates with a clear base (BD Biosciences, Heidelberg, Germany or Greiner, Frickenhausen, Germany) in a density of 20,000-35,000 cells/well. Overnight, the cells are incubated at 37° C. and 5% CO2 in culture medium (hB1R cells: Nutrient Mixture Ham's F12, Gibco Invitrogen GmbH, Karlsruhe, Germany or DMEM, Sigma-Aldrich, Taufkirchen, Germany; rB1R cells: D-MEM/F12, Gibco Invitrogen, Karlsruhe, Germany) with 10 vol. % FBS (foetal bovine serum, Gibco Invitrogen GmbH, Karlsruhe, Germany or PAN Biotech GmbH, Aidenbach, Germany). On the following day the cells are loaded with 2.13 μM Fluo-4 (Molecular Probes Europe BV, Leiden, The Netherlands) in HBSS buffer (Hank's buffered saline solution, Gibco Invitrogen GmbH, Karlsruhe, Germany) with 2.5 mM probenecid (Sigma-Aldrich, Taufkirchen, Germany) and 10 mM HEPES (Sigma-Aldrich, Taufkirchen, Germany) for 60 min at 37° C. The plates are the washed twice with HBSS buffer, and HBSS buffer which additionally contains 0.1% BSA (bovine serum albumin; Sigma-Aldrich, Taufkirchen, Germany), 5.6 mM glucose and 0.05% gelatine (Merck KGaA, Darmstadt, Germany) is added. After a further incubation of 20 minutes at room temperature, the plates are inserted into the FLIPR for Ca^2+ measurement. Alternatively they are washed with buffer A (15 mM HEPES, 80 mM NaCl, 5 mM KCl, 1.2 mM CaCl2, 0.7 mM MgSO4, 2 g/l glucose, 2.5 mM probenecid) and loaded with buffer A with added 2.5 μM Fluo-4 and 0.025% Pluronic F127 (Sigma-Aldrich, Taufkirchen, Germany). The cells are then washed twice with buffer A and incubated for 30 minutes with buffer A, which additionally contains 0.05% BSA and 0.05% gelatine, at room temperature and then used for Ca^2+ measurement in the FLIPR.
(§4) The Ca^2+-dependent fluorescence is measured here before and after addition of substances (λex=488 nm, λem=540 nm). The quantification is performed by measuring the highest fluorescence intensity (FC, fluorescence counts) over time.
(§5) The FLIPR protocol comprises two additions of substance. Test substances (10 μM) are first pipetted onto the cells and the Ca^2+ inflow is compared with the control (hB1R: Lys-Des-Arg^9 bradykinin>=50 nM; rB1R: Des-Arg^9 bradykinin 10 μM). The value in % activation based on the Ca^2+ signal after addition of Lys-Des-Arg^9 bradykinin (>=50 nM) or Des-Arg^9 bradykinin (10 μM) is obtained therefrom. After incubation for 10-20 minutes, Lys-Des-Arg^9 bradykinin (hB1R) or Des-Arg^9 bradykinin (rB1R) is applied in the EC80 concentration and the inflow of Ca^2+ is likewise determined. Antagonists lead to a suppression of the Ca^2+ inflow. The % inhibition in comparison with the maximum achievable inhibition is calculated. […]

human B1R = target: T2, human B1R (Homo sapiens, UniProt P46663); experiment: Functional investigation on the bradykinin receptor 1 (B1R), FLIPR Ca2+ assay, hB1R cells; type: cell-based; settings: % inhibition human B1R at 10 μM; CHO K1 cells transfected with human B1R; agonist Lys-Des-Arg9 bradykinin at EC80; read-out: % Inh. (hum. B1R) 10 μM
T2 construct: expressed in transfected cells; host or cells: CHO K1 cells
T2 sequence (P46663 1-353): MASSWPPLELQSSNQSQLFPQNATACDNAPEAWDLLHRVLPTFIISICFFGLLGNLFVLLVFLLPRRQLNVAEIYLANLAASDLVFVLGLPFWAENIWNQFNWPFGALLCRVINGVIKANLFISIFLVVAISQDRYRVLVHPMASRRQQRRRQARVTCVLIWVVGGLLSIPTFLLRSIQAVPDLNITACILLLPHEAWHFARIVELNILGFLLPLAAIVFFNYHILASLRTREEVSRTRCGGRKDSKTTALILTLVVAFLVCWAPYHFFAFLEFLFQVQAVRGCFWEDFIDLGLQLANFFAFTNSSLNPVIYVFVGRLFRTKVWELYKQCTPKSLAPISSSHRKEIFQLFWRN
Experimental: as §1, §2, §3, §4, §5

SMILES	inhibition at 10 µM (rat B1R) [%]	inhibition at 10 µM (human B1R) [%]
COc1cc(C)c(S(=O)(=O)N(CCOCC(=O)N2CCC3(CC2)CCC(c2ccccc2)(N(C)C)CC3)C2CC2)c(C)c1 [Compound 3, N-Cyclopropyl-N-(2-(2-(9-(dimethylamino)-9-phenyl-3-azaspiro[5.5]undecan-3-yl)-2-oxoethoxy)ethyl)-4-methoxy-2,6-dimethylbenzenesulfonamide]	102	100
Cc1cc(S(=O)(=O)N2CCCCC2CCC(=O)N2CCC3(CC2)CCC(c2cccc(F)c2)(N2CCCC2)CC3)c(C)cc1Cl (stereo not shown) [CC-07, 3-[1-[(4-Chloro-2,5-dimethyl-phenyl)sulfonyl]-piperidin-2-yl]-1-[3-(3-fluorophenyl)-3-pyrrolidin-1-yl-9-azaspiro[5.5]undecan-9-yl]-propan-1-one]	86	99
COc1cc(C)c(S(=O)(=O)N2CCCCC2COCC(=O)N2CCC3(CC2)CCC(c2cccs2)(N(C)C)CC3)c(C)c1 (stereo not shown) [CC-11, 1-(3-Dimethylamino-3-thiophen-2-yl-9-azaspiro[5.5]undecan-9-yl)-2-[[1-[(4-rnethoxy-2,6-dimethyl-phenyl)sulfonyl]-piperidin-2-yl]-methoxy]-ethanone]	98	100
COc1cc(C)c(S(=O)(=O)N2CCCCC2CCCC(=O)N2CCC3(CC2)CCC(c2ccccc2)(N(C)C)CC3)c(C)c1 (stereo not shown) [Compound 8, 1-(9-(Dimethylamino)-9-phenyl-3-azaspiro[5.5]undecan-3-yl)-4-(1-(4-methoxy-2,6-dimethylphenylsulfonyl)piperidin-2-yl)butan-1-one]	98	98
COc1cc(C)c(S(=O)(=O)N2c3ccccc3C[C@H]2COCC(=O)N2CCC3(CC2)CCC(c2ccccc2)(N(C)C)CC3)c(C)c1 [Compound 4, 1-(9-(Dimethylamino)-9-phenyl-3-azaspiro[5.5]undecan-3-yl)-2-(((S)-1-(4-methoxy-2,6-dimethylphenylsulfonyl)indolin-2-yl)methoxy)ethanone]	102	98
COc1cc(C)c(S(=O)(=O)N2C=CNC(=O)[C@H]2CC(=O)N2CCC3(CC2)CCC(c2ccccc2)(N(C)C)CC3)c(C)c1 [Compound 10, (3R)-3-(2-(9-(Dimethylamino)-9-phenyl-3-azaspiro[5.5]undecan-3-yl)-2-oxoethyl)-4-(4-methoxy-2,6-dimethylphenylsulfonyl)-3,4-dihydropyrazin-2(1H)-one]	92	100
CN(C)C1(c2cccs2)CCC2(CCN(C(=O)CC3CCCCN3S(=O)(=O)c3cccc(C(F)(F)F)c3)CC2)CC1 (stereo not shown) [CC-10, 1-(3-Dimethylamino-3-thiophen-2-yl-9-azaspiro[5.5]undecan-9-yl)-2-[1-[[3-(trifluoromethyl)phenyl]sulfonyl]-piperidin-2-yl]-ethanone]	79	84
COc1cc(C)c(S(=O)(=O)N2CCCCC2COCC(=O)N2CCC3(CC2)CCC(c2ccccc2)(N2CCCC2)CC3)c(C)c1 (stereo not shown) [Compound 1, 2-((1-(4-Methoxy-2,6-dimethylphenylsulfonyl)piperidin-2-yl)methoxy)-1-(9-phenyl-9-(pyrrolidin-1-yl)-3-azaspiro[5.5]undecan-3-yl)ethanone]	92	100
COc1cc(C)c(S(=O)(=O)N2CCCC[C@H]2COCC(=O)N2CCC3(CC2)CCC(c2cccc(F)c2)(N(C)C)CC3)c(C)c1 [Compound 11, 1-(9-(Dimethylamino)-9-(3-fluorophenyl)-3-azaspiro[5.5]undecan-3-yl)-2-(((S)-1-(4-methoxy-2,6-dimethylphenylsulfonyl)piperidin-2-yl)methoxy)ethanone]	104	100
Cc1cc(S(=O)(=O)N2CCCCC2CCC(=O)N2CCC3(CC2)CCC(c2cccs2)(N(C)C)CC3)c(C)cc1Cl (stereo not shown) [CC-14, 3-[1-[(4-Chloro-2,5-dimethyl-phenyl)sulfonyl]-piperidin-2-yl]-1-(3-dimethylamino-3-thiophen-2-yl-9-azaspiro[5.5]undecan-9-yl)-propan-1-one]	101	99
COc1cc(C)c(S(=O)(=O)N2CCCCC2CCCC(=O)N2CCC3(CC2)CCC(c2cccs2)(N(C)C)CC3)c(C)c1 (stereo not shown) [CC-16, 1-(3-Dimethylamino-3-thiophen-2-yl-9-azaspiro[5.5]undecan-9-yl)-4-[1-[(4-methoxy-2,6-dimethyl-phenyl)sulfonyl]-piperidin-2-yl]-butan-1-one]	102	99
COc1cc(C)c(S(=O)(=O)N2CCCCC2COCC(=O)N2CCC3(CC2)CCC(c2cccc(F)c2)(N2CCCC2)CC3)c(C)c1 (stereo not shown) [CC-03, 1-[3-(3-Fluorophenyl)-3-pyrrolidin-1-yl-9-azaspiro[5.5]undecan-9-yl]-2-[[1-[(4-methoxy-2,6-dimethyl-phenyl)sulfonyl]-piperidin-2-yl]-methoxy]-ethanone]	99	100
COc1cc(C)c(S(=O)(=O)N2CCCC[C@H]2COCC(=O)N2CCC3(CC2)CCC(c2ccccc2)(N2CC(F)(F)C2)CC3)c(C)c1 [Compound 13, 1-(9-(3,3-Difluoroazetidin-1-yl)-9-phenyl-3-azaspiro[5.5]undecan-3-yl)-2-(((S)-1-(4-methoxy-2,6-dimethylphenylsulfonyl)piperidin-2-yl)methoxy)ethanone]	104	86
CN(C)C1(c2cccs2)CCC2(CCN(C(=O)CC(NS(=O)(=O)c3ccc4ccccc4c3)c3ccccc3)CC2)CC1 (stereo not shown) [CC-15, N-[3-(3-Dimethylamino-3-thiophen-2-yl-9-azaspiro[5.5]undecan-9-yl)-3-oxo-1-phenyl-propyl]-naphthalene-2-sulfonic acid amide]	100	69
